Source: a melting point compilation (Tetko et al.)

Details: a range is the spread between reports

Row | SMILES | melting point [°C]
1 | COC(=O)c1ccc(Br)cc1 | 79 to 81
2 | O=C1CCc2ccccc21 | 40 to 42
3 | COC1=CC(=O)C=C(OC)C1=O | 253 to 256
4 | Nc1ccc(-c2ccccc2)cc1 | 53 to 54
5 | N#CCCCCCCC#N | -3.5 to -3
6 | O=C1CCC(=O)O1 | 119 to 120
7 | ClC(Cl)(Cl)Cl | -23 to -22.9
8 | N#Cc1ccc(Cl)c([N+](=O)[O-])c1 | 99 to 100
9 | C=CC(N)=O | 84 to 84.5
10 | C=C(C)c1ccc(C(=C)C)cc1 | 63.5 to 66
11 | Cc1ncc[nH]1 | 143 to 144
12 | Nc1cccc(Oc2ccccc2)c1 | 36 to 37
13 | Cc1ccc(Cc2ccccc2)cc1 | 4.58 to 5
14 | Nn1cnnc1 | 82.5 to 86
15 | ClC1=C(Cl)C2(Cl)C3C(Cl)C(Cl)CC3C1(Cl)C2(Cl)Cl (stereo unspecified) | 104 to 106
16 | O=C1c2ccccc2C(=O)c2c(Cl)cccc21 | 159 to 163
17 | Oc1ccccc1Br | 5 to 5.6
18 | CC(=O)C(=O)O | 11 to 13.8
19 | C#CC(C)(C)O | 2.6 to 3
20 | CCOC(=O)C(O)(c1ccc(Cl)cc1)c1ccc(Cl)cc1 | 36 to 37
21 | O=C(c1ccccc1)c1ccccc1C(F)(F)F | 60 to 61
22 | O=C1c2ccccc2C(=O)c2ccccc21 | 284 to 286
23 | Cc1c(C)c(C)c(C)c(C)c1C | 164 to 168
24 | C=C(C)OC(C)=O | -93 to -92.9
25 | Oc1cc(O)c2ccccc2c1 | 124 to 125
26 | O=C(Cl)c1ccc(Br)cc1 | 40 to 42

Row | SMILES | melting point [°C]
27 | C#CC1(O)CCCC1 | 25 to 27
28 | COc1ccc2ccccc2c1C=O | 83 to 84
29 | Cc1ccc(O)c(C)c1 | 22 to 27
30 | O=C(c1ccccc1)c1cccc(Cl)c1 | 82 to 83
31 | COC(=O)c1cccc(O)c1 | 71 to 74
32 | COC(F)(F)C(Cl)Cl | -36 to -35
33 | O=C(O)c1ccccc1-c1ccccc1C(=O)O | 229 to 234
34 | NC(=O)CCl | 118 to 121
35 | N#CCc1ccc(CC#N)cc1 | 95 to 96
36 | C=CCc1ccc(O)c(OC)c1 | -10 to -9
37 | CN(C)C(=O)Nc1ccc(Cl)cc1 | 170 to 174
38 | COC1=C(OC)C(=O)C(C)=CC1=O | 58.5 to 59.5
39 | CN(C)c1cccc2c(S(=O)(=O)Cl)cccc12 | 70 to 72
40 | O=[N+]([O-])c1ccc(Cl)cc1 | 83.5 to 84
41 | Cc1cc(C)cc(C)c1 | -45 to -44.7
42 | CN(C)c1ccncc1 | 111 to 112
43 | CC(C)=CC(C)C | -128
44 | S=C=Nc1cccc2ccccc12 | 56 to 58
45 | COC(=O)c1ccc(I)cc1 | 115
46 | C1CCCC1 | -94 to -93.8
47 | C1=CCC=CC1 | -49.2 to -49
48 | ClCC(Cl)Cl | -37 to -35
49 | CN(C)C(=O)Nc1ccccc1 | 132 to 134
50 | Cc1nnc(C)s1 | 63 to 65
51 | OC1CCCCCCCCC1 | 39.9 to 40.5
52 | O=[N+]([O-])c1ccc(F)c([N+](=O)[O-])c1 | 25.8 to 27

Row | SMILES | melting point [°C]
53 | Oc1ccc(Br)cc1Br | 37 to 40
54 | CC(=O)Nc1cccc(O)c1 | 146 to 148
55 | Oc1ccccc1C(F)(F)F | 45.5 to 46
56 | O=S(Cl)Cl | -105 to -104
57 | Cc1ccc(P(c2ccc(C)cc2)c2ccc(C)cc2)cc1 | 145 to 149
58 | c1ccc2ncccc2c1 | -15 to -14.8
59 | COc1cccc(OC)c1OC | 44 to 48.5
60 | CCCCBr | -112
61 | Oc1ccc(Oc2ccccc2)cc1 | 80 to 84
62 | Clc1ccc2ccccc2n1 | 36 to 38
63 | O=C(O)c1cc(Cl)cc(Cl)c1 | 186 to 188
64 | c1ccc2c(c1)Nc1ccccc1S2 | 184 to 188
65 | Oc1c(I)cc(I)cc1I | 158 to 160
66 | CCI | -111 to -108
67 | CCCC#N | -112
68 | Nc1ccc2c(c1)Cc1ccccc1-2 | 128 to 129
69 | N#Cc1cccc([N+](=O)[O-])c1 | 116 to 117
70 | O=C(O)COc1ccccc1 | 98.5 to 100
71 | c1ccc(OP(Oc2ccccc2)Oc2ccccc2)cc1 | 23 to 25
72 | Clc1cc(Cl)c(-c2ccccc2)cc1Cl | 76 to 78
73 | CC[C@H]1CC[C@H]2[C@@H]3CC[C@@H]4CCCC[C@]4(C)[C@H]3CC[C@]12C | 83.5 to 84.5
74 | CC12C=CC(=O)C=C1CCC1C2C(=O)CC2(C)C1CCC2(O)C(=O)CO (stereo unspecified) | 234 to 237
75 | O=[N+]([O-])c1cccc(I)c1 | 37 to 38.5
76 | Cc1ccc(C(C)C)c(O)c1 | 49 to 51.5
77 | O=C1C=CC(=O)N1 | 92 to 94
78 | Cc1ccc2sc(C)nc2c1 | 38 to 40

Row | SMILES | melting point [°C]
79 | O=C(O)Cc1ccccc1 | 76 to 79
80 | c1ccc(C(c2ccccc2)(c2ccccc2)c2ccccc2)cc1 | 282 to 283
81 | Cc1ccco1 | -89 to -87.5
82 | CCCCCCCCCl | -58 to -57.8
83 | O=c1cccccc1O | 50.8 to 53
84 | Cc1cc(O)cc(C)c1Cl | 114 to 115
85 | O=Cc1ccccc1C=O | 56 to 56.5
86 | C/C=C/c1ccc(OC)cc1 | 21 to 23
87 | O=C(c1ccccc1)c1ccccc1O | 39 to 40
88 | O=C(O)c1ccnc2ccccc12 | 254
89 | ON=C1CCCC1 | 56 to 57.8
90 | BrCC(Br)CBr | 16 to 17
91 | ClCCCCCCl | -73 to -72
92 | c1ccc(Cc2ccccn2)cc1 | 10 to 12.5
93 | Cc1csc(S)n1 | 88 to 89.3
94 | O=C(c1ccccc1)c1cccc(C(F)(F)F)c1 | 52 to 52.5
95 | Brc1ccccc1-c1ccccc1 | 1 to 2
96 | CC(C)(C)c1cc(C(=O)O)cc(C(C)(C)C)c1O | 208
97 | Nc1cccc(Cl)c1 | -10.4 to -10
98 | O=Cc1cc(Br)cc(Br)c1O | 83 to 86
99 | O=C1C=CC(=O)C2C3C=CC(C3)C12 (stereo unspecified) | 73 to 77.5
100 | O=C(O)c1ccco1 | 130 to 134
101 | Cc1cccnc1 | -18.1 to -18
102 | CC#N | -48 to -43.8
103 | c1ccc(-c2ccncc2)nc1 | 61 to 61.5
104 | Nc1c(Br)cc([N+](=O)[O-])cc1[N+](=O)[O-] | 152 to 154

The next lines start with the values.

Row | melting point [°C] | SMILES
105 | 143 to 144 | O=C(O)CCCCCCC(=O)O
106 | 52 to 53 | CCCCCCCCCCCCCCC(=O)O
107 | 67 to 70.2 | CCCCCCCCCCCC(=O)CCCCCCCCCCC
108 | -77 to -76.9 | CCc1cccnc1
109 | 115 to 116 | O=C(O)CCC(=O)C(=O)O
110 | 161 to 162 | O=C(O)Cc1sc(-c2ccccc2)nc1-c1ccc(Cl)cc1
111 | -100 to -99 | CCCc1ccccc1
112 | 70 to 71.5 | c1ccc(CSSCc2ccccc2)cc1
113 | 188 to 189 | Nc1ccc(O)cc1
114 | 102 to 103 | OC[C@@H](O)[C@@H](O)[C@@H](O)CO
115 | 30 to 34 | OC/C=C/c1ccccc1
116 | -99.3 to -99 | CCC(CC)C(C)(C)C
117 | 33 to 36.5 | CCC/C=C/C(=O)O
118 | 26 to 27 | Clc1ccc(Br)c(Cl)c1
119 | 26 to 27 | Cc1ccc(N)cc1Br
120 | -115 to -113 | CC/C=C/CC
121 | -7 to -4 | OCCOCCOCCO
122 | -13 to -12.6 | CC(C)(C)CCC(C)(C)C
123 | 196 to 200 | NCCC(=O)O
124 | 81.5 to 82 | O=C(O)CCI
125 | 56 to 57 | NCCCCCCO
126 | 61 to 64 | OCc1cccc2ccccc12
127 | 42 to 47 | CCOC(=O)c1cccc([N+](=O)[O-])c1
128 | 74 to 76.7 | OCCOc1ccc2ccccc2c1

Row | melting point [°C] | SMILES
129 | 81 | Cc1ccc2n[nH]nc2c1
130 | -69 to -68.7 | CCCCCC(=O)OCCC
131 | -35.5 to -35 | CCCCCCCC(C)O (stereo unspecified)
132 | -60.3 to -60 | CCCc1ccccc1C
133 | 48 to 49 | CCOC(N)=O
134 | -45 to -44.5 | O=Cc1ccccc1F
135 | 248 to 249 | O=C(O)C=Cc1ccc(Cl)cc1
136 | 87 to 89 | CCCCCCCCCCCCCCCCCC(=O)CCCCCCCCCCCCCCCCC
137 | 12 to 15 | CCCCCCCCCC(C)=O
138 | 133 to 134 | COc1cccc(C(N)=O)c1
139 | 56 to 59 | CC(=O)CC(=O)c1ccccc1
140 | 31 to 32 | CCCCCCCCCC(=O)O
141 | 53 to 54 | OCc1ccncc1
142 | 50 to 54 | CC(C)(C)CO
143 | 82 to 84 | N#CCc1ccccc1[N+](=O)[O-]
144 | 150 to 155 | Nc1ccncn1
145 | -98 to -93 | CCCC(=O)OCC
146 | 142 to 143 | NC(=O)c1cccc([N+](=O)[O-])c1
147 | 39 to 41.5 | NCCCCCCN
148 | 40 to 41 | BrCCCCCCCCCCCCBr
149 | 95 to 96 | Cc1cccc(C(N)=O)c1
150 | -140 | C=CCCCC
151 | -79 to -78 | CCCCCO
152 | -100 to -95 | COCC(C)O (stereo unspecified)

Row | melting point [°C] | SMILES
153 | -39 to -37 | CCCCC(=O)CC
154 | 51 to 54 | CCCCCCCCCCCCCCCCCCCCCCCC
155 | 53 to 53.2 | Cc1ccc([N+](=O)[O-])c(F)c1
156 | -99 to -98.9 | CCC(C)OC(C)=O (stereo unspecified)
157 | 32.6 to 33 | CCCCS(=O)CCCC
158 | 39 to 40 | O=C(O)CCCCBr
159 | 8 to 10.3 | COC(=O)CCCCC(=O)OC
160 | 109 to 113 | OCc1cc(Br)ccc1O
161 | -114 | CCO
162 | -76 to -75.9 | CCCOC(=O)CC
163 | 44 to 45.5 | CCCC(=O)NN
164 | -49.2 to -49 | CCCCCCCCS
165 | -133 | C=C(Br)CC
166 | -91.2 to -91 | CCC(C)CC(O)CC (stereo unspecified)
167 | 53.9 to 55.1 | CCCCCCCCCCCCCC(=O)O
168 | 156 | NC(=O)c1ccc(F)cc1
169 | 158 to 160 | COc1ccc2c(c1)c(CC(=O)O)c(C)n2C(=O)c1ccc(Cl)cc1
170 | 2 to 2.55 | NC=O
171 | -68 to -64 | COCCOCCOC
172 | 303 to 307 | CCCC(N)C(=O)O (racemic)
173 | -40 to -35 | NCCNCCN
174 | -138 | CCC1CCCC1
175 | -63.1 to -63 | CCc1ccccn1
176 | 32.5 to 34 | CCCCCCCCCCCCCO
